Data reported in patent US20260274856A1, “COVALENT CEREBLON LIGANDS” (C4 THERAPEUTICS, INC., priority 2023, published 2026).
Where two headings read alike, the source gives them in different places. Values belong to the molecule of their own block, whether it stands above or below them.

Columns and labels:
[1] = tested on: A375—NRASQ^61K cells (cell line A375.11); assay: CTGlo (CellTiter-Glo 2.0) Cell Viability Assay; format: cell-based
Method: Compounds of the present invention were tested for their effect on the viability of A375—NRASQ^61K cells by quantification of ATP using the CellTiter-Glo® 2.0 Cell Viability Assay (Catalog No. G9243, Promega, Madison, WI, USA). This assay produces a luminescent signal in the presence of ATP, which is indicative of metabolically active cells, making the luminescence readout proportional to the number of viable cells. A375—NRASQ^61K cells, also referred to here as cell line A375.11, (harboring BRAF homozygous V600E mutation and NRAS homozygous Q61K mutation) were purchased from ATCC (Catalog No. CRL-1619IG-2, Manassas, VA, USA).
Cells were also plated to a 384-well plate with no compound treatment, to which CellTiter-Glo® reagent was added and luminescence was read right after plating to act as a baseline signal at time of plating (To).
DMSO treated cells with no CellTiter-Glo® reagent added were used as the background or positive control (P). Viability was determined by subtracting out the average background signal (P) and normalized to the average untreated signal (N) set at 100%.

mutant BRAF V600E = mutant BRAF V600E (Homo sapiens, UniProt P15056, V600E); assay: BRAF V600E HiBiT Degradation Assay in A375.10 cells; details: for HiBIT-Degradation A375.10 BRAF 24 hours IP nM / HiBIT-Degradation A375.10 BRAF 2 hours IP nM: inflection point of the dose-response curve
[2] = 96 h, IP, read-out: CTGlo A375.11 96 hours IP
[3] = 96 hours, lowest % viability achieved
[4] = half-maximal inhibition of cell growth, table title: A375.11 96 hours, read-out: CTGlo A375.11 96 hours GI50
[5] = 96 hours, IP, read-out: CTGlo A375.11 96 hours IP
[6] = read-out: HiBIT-Degradation A375.10 BRAF 24 hours DC50 nM, 24 hours, A375.10 cells
[7] = read-out: HiBIT-Degradation A375.10 BRAF 24 hours Emax
[8] = read-out: HIBIT-Degradation A375.10 BRAF 2 hours DC50 nM, 2 hours, A375.10 cells
[9] = read-out: HiBIT-Degradation A375.10 BRAF 2 hours Emax

Sequence of mutant BRAF V600E (P15056 whole entry V600E): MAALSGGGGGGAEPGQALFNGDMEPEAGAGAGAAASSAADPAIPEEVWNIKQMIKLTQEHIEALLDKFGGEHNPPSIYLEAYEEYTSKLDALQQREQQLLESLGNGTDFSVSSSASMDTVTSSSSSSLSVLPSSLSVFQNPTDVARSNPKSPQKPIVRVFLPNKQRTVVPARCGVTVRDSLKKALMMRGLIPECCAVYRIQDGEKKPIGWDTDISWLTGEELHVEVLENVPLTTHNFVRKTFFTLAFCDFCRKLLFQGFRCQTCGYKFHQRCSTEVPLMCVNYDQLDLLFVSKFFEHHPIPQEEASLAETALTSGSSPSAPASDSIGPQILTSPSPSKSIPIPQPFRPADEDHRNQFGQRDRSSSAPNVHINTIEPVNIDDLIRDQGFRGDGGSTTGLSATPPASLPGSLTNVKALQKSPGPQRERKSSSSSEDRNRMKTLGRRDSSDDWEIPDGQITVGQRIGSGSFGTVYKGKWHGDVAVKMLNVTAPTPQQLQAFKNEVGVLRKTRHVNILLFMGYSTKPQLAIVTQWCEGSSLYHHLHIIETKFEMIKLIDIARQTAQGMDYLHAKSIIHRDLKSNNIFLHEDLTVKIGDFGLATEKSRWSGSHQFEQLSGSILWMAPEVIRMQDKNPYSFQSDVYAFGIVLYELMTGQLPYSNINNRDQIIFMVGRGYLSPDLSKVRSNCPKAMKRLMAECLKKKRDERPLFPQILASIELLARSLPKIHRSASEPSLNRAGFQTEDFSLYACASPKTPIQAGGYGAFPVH

SMILES: CCN(C)S(=O)(=O)Nc1ccc(F)c(Oc2ccc3ncn([C@@H]4COC5(CCN(C(=O)CN6CCC(c7ccc(C8CCC(=O)NC8=O)cc7OS(=O)(=O)F)CC6)CC5)C4)c(=O)c3c2)c1C#N (stereo partly drawn) [drawing 1168]
GI50 [1, 2]: 1 to 10 µM
Emax [1, 3]: 60 to 95%
GI50 [1, 4]: > 10 µM

SMILES: CCN(C)S(=O)(=O)Nc1ccc(F)c(Oc2ccc3ncn([C@H]4COC5(CCN(C(=O)CN6CCC(c7ccc(N8CCC(=O)NC8=O)cc7OS(=O)(=O)F)CC6)CC5)C4)c(=O)c3c2)c1C#N [drawing 1180]
GI50 [1, 2]: 1 to 10 µM
Emax [1, 3]: 60 to 95%
GI50 [1, 4]: > 10 µM

GI50 [1, 5]: > 10 µM
GI50 [1, 4]: > 10 µM
SMILES: CCN(C)S(=O)(=O)Nc1ccc(F)c(Oc2ccc3ncn([C@@H]4COC5(CCN(C(=O)CN6CCC(c7ccc(NC8CCC(=O)NC8=O)cc7OS(C)(=O)=O)CC6)CC5)C4)c(=O)c3c2)c1C#N (stereo partly drawn) [drawing 1188]
Emax [1, 3]: > 95%

SMILES: CCN(C)S(=O)(=O)Nc1ccc(F)c(Oc2ccc3ncn([C@H]4COC5(CCN(C(=O)CN6CCC(c7ccc(OC8CCC(=O)NC8=O)cc7S(=O)(=O)F)CC6)CC5)C4)c(=O)c3c2)c1C#N (stereo partly drawn) [drawing 1181]
GI50 [1, 2]: > 10 µM
Emax [1, 3]: 60 to 95%
GI50 [1, 4]: > 10 µM

SMILES: CCN(C)S(=O)(=O)Nc1ccc(F)c(Oc2ccc3ncn([C@H]4COC5(CCN(C(=O)CN6CCC(c7ccc(OC8CCC(=O)NC8=O)cc7OS(=O)(=O)F)CC6)CC5)C4)c(=O)c3c2)c1C#N (stereo partly drawn) [drawing 1179]
GI50 [1, 2]: 1 to 10 µM
Emax [1, 3]: 60 to 95%
GI50 [1, 4]: > 10 µM

SMILES: CCN(C)S(=O)(=O)Nc1ccc(F)c(Oc2ccc3ncn([C@@H]4COC5(CCN(C(=O)CN6CCN(c7ccc(N8CCC(=O)NC8=O)cc7OS(=O)(=O)F)CC6)CC5)C4)c(=O)c3c2)c1C#N [drawing 1185]
GI50 [1, 2]: > 10 µM
Emax [1, 3]: 60 to 95%
GI50 [1, 4]: > 10 µM

GI50 [1, 5]: 1 to 10 µM
GI50 [1, 4]: > 10 µM
SMILES: CCN(C)S(=O)(=O)Nc1ccc(F)c(Oc2ccc3ncn([C@@H]4COC5(CCN(C(=O)CN6CCC(c7ccc(N8CCC(=O)NC8=O)cc7OS(C)(=O)=O)CC6)CC5)C4)c(=O)c3c2)c1C#N [drawing 1173]
Emax [1, 3]: 60 to 95%

SMILES: CCN(C)S(=O)(=O)Nc1ccc(F)c(Oc2ccc3ncn([C@@H]4COC5(CCN(C(=O)CN6CCC(c7ccc(N8CCC(=O)NC8=O)cc7OS(=O)(=O)F)CC6)CC5)C4)c(=O)c3c2)c1C#N [drawing 1171]
GI50 [1, 2]: > 10 µM
Emax [1, 3]: 60 to 95%
GI50 [1, 4]: > 10 µM

SMILES: CCN(C)S(=O)(=O)Nc1ccc(F)c(Oc2ccc3ncn([C@H]4COC5(CCN(C(=O)CN6CCN(c7ccc(C8CCC(=O)NC8=O)cc7OS(=O)(=O)F)CC6)CC5)C4)c(=O)c3c2)c1C#N (stereo partly drawn) [drawing 1183]
CTGlo A375.11 96 hours IP nM ([1]; 96 hours, IP): ** (<10 μM and >1 μM is **)
CTGlo A375.11 96 hours Emax [1, 3]: ** (<95% and >60% is **)
GI50 [1, 4]: > 10 µM

SMILES: CCN(C)S(=O)(=O)Nc1ccc(F)c(Oc2ccc3ncn([C@@H]4COC5(CCN(C(=O)CN6CCC(c7ccc(OC8CCC(=O)NC8=O)cc7S(=O)(=O)F)CC6)CC5)C4)c(=O)c3c2)c1C#N (stereo partly drawn) [drawing 1175]
GI50 [1, 2]: > 10 µM
Emax [1, 3]: < 60%
GI50 [1, 4]: > 10 µM

SMILES: CCN(C)S(=O)(=O)Nc1ccc(F)c(Oc2ccc3ncn([C@H]4COC5(CCN(C(=O)CN6CCC(c7ccc(NC8CCC(=O)NC8=O)cc7S(=O)(=O)F)CC6)CC5)C4)c(=O)c3c2)c1C#N (stereo partly drawn) [drawing 1178]
GI50 [1, 2]: > 10 µM
Emax [1, 3]: 60 to 95%
GI50 [1, 4]: > 10 µM

GI50 [1, 5]: > 10 µM
GI50 [1, 4]: > 10 µM
SMILES: CCN(C)S(=O)(=O)Nc1ccc(F)c(Oc2ccc3ncn([C@@H]4COC5(CCN(C(=O)CN6CCC(c7ccc(C8CCC(=O)NC8=O)cc7OS(C)(=O)=O)CC6)CC5)C4)c(=O)c3c2)c1C#N (stereo partly drawn) [drawing 1182]
Emax [1, 3]: 60 to 95%

SMILES: CCN(C)S(=O)(=O)Nc1ccc(F)c(Oc2ccc3ncn([C@@H]4COC5(CCN(C(=O)CN6CCN(c7ccc(N8CCC(=O)NC8=O)cc7OS(=O)(=O)F)CC6)CC5)C4)c(=O)c3c2)c1C#N [drawing 1229]
HiBIT-Degradation A375.10 BRAF 24 hours IP nM (mutant BRAF V600E; 24 hours, A375.10 cells): ** (<10 μM and >1 μM is **)
DC50 (mutant BRAF V600E; [6]): 1000 to 10000 nM
Emax (mutant BRAF V600E; [7]): < 60%

SMILES: CCN(C)S(=O)(=O)Nc1ccc(F)c(Oc2ccc3ncn([C@@H]4COC5(CCN(C(=O)CN6CCC(c7ccc(N8CCC(=O)NC8=O)cc7OS(=O)(=O)F)CC6)CC5)C4)c(=O)c3c2)c1C#N [drawing 1227]
HiBIT-Degradation A375.10 BRAF 24 hours IP nM (mutant BRAF V600E; 24 hours, A375.10 cells): ** (<10 μM and >1 μM is **)
DC50 (mutant BRAF V600E; [6]): 1000 to 10000 nM
Emax (mutant BRAF V600E; [7]): < 60%

SMILES: CCN(C)S(=O)(=O)Nc1ccc(F)c(Oc2ccc3ncn([C@H]4COC5(CCN(C(=O)CN6CCC(c7ccc(N8CCC(=O)NC8=O)cc7OS(=O)(=O)F)CC6)CC5)C4)c(=O)c3c2)c1C#N [drawing 1193]
HiBIT-Degradation A375.10 BRAF 2 hours IP nM (mutant BRAF V600E; 2 hours, A375.10 cells): * (>=10 μM is *)
DC50 (mutant BRAF V600E; [8]): > 10000 nM
Emax (mutant BRAF V600E; [9]): > 95%

SMILES: CCN(C)S(=O)(=O)Nc1ccc(F)c(Oc2ccc3ncn([C@@H]4COC5(CCN(C(=O)CN6CCC(c7ccc(C8CCC(=O)NC8=O)cc7OS(=O)(=O)F)CC6)CC5)C4)c(=O)c3c2)c1C#N (stereo partly drawn) [drawing 1189]
HiBIT-Degradation A375.10 BRAF 2 hours IP nM (mutant BRAF V600E; 2 hours, A375.10 cells): *** (<= 1 μM is)
DC50 (mutant BRAF V600E; [8]): 1000 to 10000 nM
Emax (mutant BRAF V600E; [9]): 60 to 95%

HiBIT-Degradation A375.10 BRAF 24 hours IP nM (mutant BRAF V600E; 24 hours, A375.10 cells): *** (<= 1 μM is ***)
DC50 (mutant BRAF V600E; [6]): < 1000 nM
Emax (mutant BRAF V600E; [7]): < 60%
SMILES: CCN(C)S(=O)(=O)Nc1ccc(F)c(Oc2ccc3ncn([C@H]4COC5(CCN(C(=O)CN6CCC(c7ccc(N8CCC(=O)NC8=O)cc7OS(C)(=O)=O)CC6)CC5)C4)c(=O)c3c2)c1C#N [drawing 1220]

SMILES: CCN(C)S(=O)(=O)Nc1ccc(F)c(Oc2ccc3ncn([C@H]4COC5(CCN(C(=O)CN6CCN(c7ccc(N8CCC(=O)NC8=O)cc7OS(=O)(=O)F)CC6)CC5)C4)c(=O)c3c2)c1C#N [drawing 1213]
HiBIT-Degradation A375.10 BRAF 24 hours IP nM (mutant BRAF V600E; 24 hours, A375.10 cells): *** (<= 1 μM is ***)
DC50 (mutant BRAF V600E; [6]): 1000 to 10000 nM
Emax (mutant BRAF V600E; [7]): < 60%

SMILES: CCN(C)S(=O)(=O)Nc1ccc(F)c(Oc2ccc3ncn([C@@H]4COC5(CCN(C(=O)CN6CCC(c7ccc(N8CCC(=O)NC8=O)cc7OS(=O)(=O)F)CC6)CC5)C4)c(=O)c3c2)c1C#N [drawing 1192]
HiBIT-Degradation A375.10 BRAF 2 hours IP nM (mutant BRAF V600E; 2 hours, A375.10 cells): * (>=10 μM is *)
DC50 (mutant BRAF V600E; [8]): > 10000 nM
Emax (mutant BRAF V600E; [9]): > 95%

HiBIT-Degradation A375.10 BRAF 24 hours IP nM (mutant BRAF V600E; 24 hours, A375.10 cells): *** (<= 1 μM is ***)
DC50 (mutant BRAF V600E; [6]): < 1000 nM
Emax (mutant BRAF V600E; [7]): < 60%
SMILES: CCN(C)S(=O)(=O)Nc1ccc(F)c(Oc2ccc3ncn([C@@H]4COC5(CCN(C(=O)CN6CCC(c7ccc(C8CCC(=O)NC8=O)cc7OS(C)(=O)=O)CC6)CC5)C4)c(=O)c3c2)c1C#N (stereo partly drawn) [drawing 1223]

HiBIT-Degradation A375.10 BRAF 24 hours IP nM (mutant BRAF V600E; 24 hours, A375.10 cells): ** (<10 μM and >1 μM is **)
DC50 (mutant BRAF V600E; [6]): > 10000 nM
Emax (mutant BRAF V600E; [7]): < 60%
SMILES: CCN(C)S(=O)(=O)Nc1ccc(F)c(Oc2ccc3ncn([C@@H]4COC5(CCN(C(=O)CN6CCC(c7ccc(OC8CCC(=O)NC8=O)cc7OS(C)(=O)=O)CC6)CC5)C4)c(=O)c3c2)c1C#N (stereo partly drawn) [drawing 1230]

SMILES: CCN(C)S(=O)(=O)Nc1ccc(F)c(Oc2ccc3ncn([C@H]4COC5(CCN(C(=O)CN6CCC(c7ccc(OC8CCC(=O)NC8=O)cc7OS(=O)(=O)F)CC6)CC5)C4)c(=O)c3c2)c1C#N (stereo partly drawn) [drawing 1214]
HiBIT-Degradation A375.10 BRAF 24 hours IP nM (mutant BRAF V600E; 24 hours, A375.10 cells): *** (<= 1 μM is ***)
DC50 (mutant BRAF V600E; [6]): < 1000 nM
Emax (mutant BRAF V600E; [7]): < 60%

SMILES: CCN(C)S(=O)(=O)Nc1ccc(F)c(Oc2ccc3ncn([C@H]4COC5(CCN(C(=O)CN6CCN(c7ccc(C8CCC(=O)NC8=O)cc7OS(=O)(=O)F)CC6)CC5)C4)c(=O)c3c2)c1C#N (stereo partly drawn) [drawing 1199]
HiBIT-Degradation A375.10 BRAF 2 hours IP nM (mutant BRAF V600E; 2 hours, A375.10 cells): *** (<= 1 μM is)
HiBIT-Degradation A375.10 BRAF 2 hours Emax (mutant BRAF V600E; 2 hours, A375.10 cells, residual protein remaining): *** (<= 60% is)
DC50 (mutant BRAF V600E; [8]): > 10000 nM

HiBIT-Degradation A375.10 BRAF 2 hours IP nM (mutant BRAF V600E; 2 hours, A375.10 cells): *** (<= 1 μM is)
DC50 (mutant BRAF V600E; [8]): 1000 to 10000 nM
Emax (mutant BRAF V600E; [9]): < 60%
SMILES: CCN(C)S(=O)(=O)Nc1ccc(F)c(Oc2ccc3ncn([C@H]4COC5(CCN(C(=O)CN6CCC(c7ccc(NC8CCC(=O)NC8=O)cc7OS(C)(=O)=O)CC6)CC5)C4)c(=O)c3c2)c1C#N (stereo partly drawn) [drawing 1202]
